Data taken from the CombiSolv-Exp solvation set (Vermeire and Green 2021).

Test: solvent given as SMILES

[HH]
Conditions | solvation free energy, 298 K [kcal/mol]
in Brc1ccccc1 | 1.77
in C1CCNC1 | 1.62
in C1CCNCC1 | 1.63
in C1CCOC1 | 1.46
in C1COCCO1 | 1.76
in C=CCCCCCC | 1.36
in C=CCCCCCCC=C | 1.6
in CC1COC(=O)O1 | 2.04
in CC#N | 1.45
in CC(=O)OCC(C)C | 1.49
in CC(C)(C)O | 1.49
in CC(C)=O | 1.38
in CC(C)CC(C)(C)C | 1.28
in CC(C)CCO | 1.76
in CC(C)CO | 1.53
in CC(C)N | 1.3
in CC(C)O | 1.45
in CCC(C)=O | 1.45
in CCC(C)O | 1.56
in CCCCC(CC)CO | 1.64
in CCCCCC | 1.24
in CCCCCCC | 1.29
in CCCCCCCC | 1.35
in CCCCCCCCCC | 1.49
in CCCCCCCCCCCCO | 1.9
in CCCCCCCCCCO | 1.83
in CCCCCCCCCO | 1.8
in CCCCCCO | 1.61
in CCCCCO | 1.64
in CCCCCOC(C)=O | 1.91
in CCCCN(CCCC)CCCC | 1.53
in CCCCNCCCC | 1.48
in CCCCO | 1.56
in CCCCOC(C)=O | 1.5
in CCCCOCCCC | 1.42
in CCCCOCCO | 1.67
in CCCN | 1.35
in CCCO | 1.52
in CCN | 1.24
in CCN(CC)CC | 1.33
in CCO | 1.47
in CCOC(C)=O | 1.46
in CCOCC | 1.15
in CCOCCO | 1.7
in CN1CCCC1 | 1.38
in CN1CCCC1=O | 1.98
in CN(C)C=O | 1.84
in CN(C)CCCN | 1.63
in CO | 1.35
in COC(C)=O | 1.42
in COCCO | 1.84
in Cc1cccc(C)c1 | 1.49
in Cc1ccccc1 | 1.62
in ClC(Cl)(Cl)Cl | 1.51
in ClC(Cl)Cl | 1.61
in ClCCCl | 1.72
in ClCCl | 1.57
in Clc1ccccc1 | 1.65
in NCCCN | 2.05
in NCCN | 2.15
in O=C1CCCC1 | 1.72
in O=C1CCCCC1 | 1.75
in OCCO | 2.38
in c1ccccc1 | 1.58

c1ccc2c(c1)cc1ccc3cccc4ccc2c1c34
Conditions | solvation free energy, 298 K [kcal/mol]
in CCCCCCCCC=CCCCCCCCC(=O)OCC(COC(=O)CCCCCCCC=CCCCCCCCC)OC(=O)CCCCCCCC=CCCCCCCCC | -16.7

CCCCCC(=O)OC
Conditions | solvation free energy, 298 K [kcal/mol]
in CCCCCC | -5.65
in CCCCCCC | -5.63
in CCCCCCCC | -5.55
in CCCCCCCCCC | -5.48
in CO | -5.84
in O | -2.5

FC(F)(Cl)C(F)(F)Cl
Conditions | solvation free energy, 298 K [kcal/mol]
in CCCCCCCC(=O)OCC(COC(=O)CCCCCCC)OC(=O)CCCCCCC | -1.63
in CCCCCCCCO | -1.61
in CN1CCCC1=O | -1.49
in CN(C)C=O | -1.6
in O | 2.25

c1ccc2ncccc2c1
Conditions | solvation free energy, 298 K [kcal/mol]
in CC(C)CC(C)(C)C | -7.14
in O | -5.72

O=C(c1ccccc1[N+](=O)[O-])N(O)c1ccccc1
Conditions | solvation free energy, 298 K [kcal/mol]
in O | -14.5

CC(F)(F)Cl
Conditions | solvation free energy, 298 K [kcal/mol]
in CCCCCCCC(=O)OCC(COC(=O)CCCCCCC)OC(=O)CCCCCCC | -1.84
in CCCCCCCCC | -1.74
in CCCCCCCCO | -1.62
in CN1CCCC1=O | -2.13
in CN(C)C=O | -2.09
in O | 0.61

CC(C)CC(=O)CC(=O)CC(C)C
Conditions | solvation free energy, 298 K [kcal/mol]
in O | -4.42

Cc1cc(O)ccc1[N+](=O)[O-]
Conditions | solvation free energy, 298 K [kcal/mol]
in CCCCOCCCC | -12.1
in O | -9.89

CCCCC(=O)OC
Conditions | solvation free energy, 298 K [kcal/mol]
in CCCCCC | -4.93
in CCCCCCC | -4.91
in CCCCCCCC | -4.85
in CCCCCCCCCC | -4.75
in CO | -5.33
in O | -2.56

C=C(C)CCCC
Conditions | solvation free energy, 298 K [kcal/mol]
in C=CCCCCCCCCCCCCCC | -4.04
in O | 1.66

CCCCOCC
Conditions | solvation free energy, 298 K [kcal/mol]
in CC(C)CCl | -4.73
in CCC(C)Cl | -4.73
in CCCCCl | -4.77
in ClC(Cl)(Cl)Cl | -4.91

CC(C)C(C)(C)O
Conditions | solvation free energy, 298 K [kcal/mol]
in CCCCCCCC | -4.6
in CCCCCCCCCC | -4.55

Cc1ccccn1
Conditions | solvation free energy, 298 K [kcal/mol]
in CC(C)(C)O | -5.91
in CC(C)CC(C)(C)C | -4.69
in CC(C)CO | -6.19
in CC(C)O | -5.88
in CCC(C)O | -6
in CCOC(C)=O | -5.67
in O | -4.63

CS
Conditions | solvation free energy, 298 K [kcal/mol]
in O | -1.18

CCCOC(C)=O
Conditions | solvation free energy, 298 K [kcal/mol]
in CC(=O)N(C)C | -4.72
in CC(C)CCCC(C)CCCC(C)CCCCC(C)CCCC(C)CCCC(C)C | -3.84
in CCCCC(CC)COC(=O)CCCCC(=O)OCC(CC)CCCC | -4.3
in CCCCCC | -4.03
in CCCCCCC | -4.02
in CCCCCCCC | -4.02
in CCCCCCCCC=CCCCCCCCC(=O)OCC(COC(=O)CCCCCCCC=CCCCCCCCC)OC(=O)CCCCCCCC=CCCCCCCCC | -4.35
in CCCCCCCCCC | -3.96
in CCCCCCCCCCCCCCCC | -3.9
in CCCCCCCCO | -4.33
in CCCCCO | -4.31
in CCCCN(C=O)CCCC | -4.56
in CCOCCO | -4.71
in CN1CCCC1=O | -4.62
in CN1CCCCC1=O | -4.72
in CNC(C)=O | -4.54
in CO | -4.82
in NC=O | -3.72
in O | -2.8
in O=CN1CCOCC1 | -4.42
in [2H]O[2H] | -2.84

CC(C)(C)CCO
Conditions | solvation free energy, 298 K [kcal/mol]
in CCCCCCCC | -4.85
in CCCCCCCCCC | -4.72
